Measured values: publication PMC12645998, “Optimization of VE607 to generate analogs with improved neutralization activities against SARS-CoV-2 variants” (Journal of Virology, 2025)
Where two headings read alike, the source gives them in different places.

Assays:
[1] = tested on: pseudoviral particles carrying SARS-CoV-1 S; assay: microbe, parasite or virus in culture; assay type: cell-based; settings: Severe acute respiratory syndrome coronavirus, 293T/ACE2, read-out: IC50 SARS-CoV-1
[2] = tested on: pseudoviral particles bearing the Spike glycoprotein from SARS-CoV-2; assay: microbe, parasite or virus in culture; assay type: cell-based; settings: pseudovirus, 293T-ACE2 cells, compounds up to 100 µM
[3] = tested on: pseudoviral particles carrying VSV-G; assay: microbe, parasite or virus in culture; assay type: cell-based; settings: Vesicular stomatitis virus, 293T/ACE2, read-out: IC50 VSV-G
[4] = Solubility in phosphate-buffered saline
[5] = Severe acute respiratory syndrome coronavirus 2, 293T/ACE2, read-out: IC50 SARS-CoV-2, Table 1

SMILES | IC50 [1] [µM] | IC50 [2, 5] [µM] | IC50 [3] [µM] | Solubility in phosphate-buffered saline (PBS) [4] | IC50 ([2]; read-out: IC50 SARS-CoV-2, Table 1) [µM]
CN(C)C[C@@H](O)COc1cccc(OC[C@H](O)CN(C)C)c1 [Compound 15] | 2.54 | 1.64 | 70.7 |  | 
O[C@@H](COc1cccc(OC[C@H](O)CN2CCOCC2)c1)CN1CCOCC1 [Compound 16] | > 100 | > 100 | > 100 |  | 
CN1CCN(C[C@@H](O)COc2cccc(OC[C@H](O)CN3CCN(C)CC3)c2)CC1 [Compound 17] | 19.9 | 1.76 | 74.9 |  | 
Cc1cccc(N2CCN(C[C@@H](O)COc3cccc(OC[C@H](O)CN4CCN(c5cccc(C)c5)CC4)c3)CC2)c1 [Compound 18] |  |  |  | b Insoluble in phosphate-buffered saline (PBS). | 
O[C@@H](COc1cccc(OC[C@H](O)CN2CCC(O)(c3ccc(Cl)cc3)CC2)c1)CN1CCC(O)(c2ccc(Cl)cc2)CC1 [Compound 19] | 1.91 | 0.52 | 1.35 |  | 
CCN(C)C[C@@H](O)COc1cccc(OC[C@H](O)CN(C)CC)c1 [Compound 20] | 0.57 | 1.18 | > 100 |  | 
C=CCNC[C@@H](O)COc1cccc(OC[C@H](O)CNCC=C)c1 [Compound 21] | 41.1 | 47.9 | > 100 |  | 
COc1ccc(CNC[C@@H](O)COc2cccc(OC[C@H](O)CNCc3ccc(OC)cc3)c2)cc1 [Compound 22] | 1.85 | 0.57 | 2.85 |  | 
O[C@H](CNCc1ccccc1OC(F)(F)F)COc1cccc(OC[C@H](O)CNCc2ccccc2OC(F)(F)F)c1 [Compound 23] |  |  |  | b Insoluble in phosphate-buffered saline (PBS). | 
O[C@H](CNC1CCOCC1)COc1cccc(OC[C@H](O)CNC2CCOCC2)c1 [Compound 24] | > 100 | 0.38 | 1.38 |  | 
CNC[C@@H](O)COc1cccc(OC[C@H](O)CNC)c1 [Compound 25] | 0.45 | > 100 | 2.69 |  | 
O[C@@H](COc1cc(Br)cc(OC[C@H](O)CN2CCCCC2)c1)CN1CCCCC1 [Compound 26] | 0.381 | 0.44 | 2.39 |  | 0.443
CCN(CC)C[C@@H](O)COc1cc(Br)cc(OC[C@H](O)CN(CC)CC)c1 [Compound 28] | 17.5 | 1.79 | > 100 |  | 
O[C@@H](COc1cc(Br)cc(OC[C@H](O)CN2CCOCC2)c1)CN1CCOCC1 [Compound 29] | 30.5 | 2.65 | > 100 |  | 
O[C@H](CNCc1ccccc1)COc1cc(Br)cc(OC[C@H](O)CNCc2ccccc2)c1 [Compound 34] | 0.34 | 0.49 | 4.71 |  | 
C=CCNC[C@@H](O)COc1cc(Br)cc(OC[C@H](O)CNCC=C)c1 [Compound 35] | 0.62 | 0.7 | 26.4 |  | 
CC(C)CNC[C@@H](O)COc1cc(Br)cc(OC[C@H](O)CNCC(C)C)c1 [Compound 36] | 0.22 | 0.32 | 5.05 |  | 
O[C@H](CNCc1ccncc1)COc1cc(Br)cc(OC[C@H](O)CNCc2ccncc2)c1 [Compound 37] | 1.29 | 1.37 | 3.89 |  | 
COc1ccc(CNC[C@@H](O)COc2cc(Br)cc(OC[C@H](O)CNCc3ccc(OC)cc3)c2)cc1 [Compound 38] | 0.66 | 1.03 | 4.09 |  | 
O[C@H](CNC1CCOCC1)COc1cc(Br)cc(OC[C@H](O)CNC2CCOCC2)c1 [Compound 40] | 0.6 | 3.63 | > 100 |  | 
CNC[C@@H](O)COc1cc(Br)cc(OC[C@H](O)CNC)c1 [Compound 41] | 0.31 | 1.17 | > 100 |  | 
O[C@@H](COc1ccccc1)CN1CCCCC1 [Compound 42] | 0.912 | 1.35 | > 100 |  | 
CNC[C@@H](O)COc1ccccc1 [Compound 43] | 62.6 | > 100 | > 100 |  | 

SMILES | IC50 [1] [µM] | IC50 [2, 5] [µM] | IC50 [3] [µM] | Solubility in phosphate-buffered saline (PBS) [4] | IC50 ([2]; read-out: IC50 SARS-CoV-2, Table 1) [µM]
CC(C)CNC[C@@H](O)COc1ccccc1 [Compound 44] | 5.95 | > 100 | > 100 |  | 
CN(C)C[C@@H](O)COc1ccccc1 [Compound 45] | 13.9 | > 100 | > 100 |  | 
CCN(C)C[C@@H](O)COc1ccccc1 [Compound 46] | > 100 | > 100 | > 100 |  | 
CCN(CC)C[C@@H](O)COc1ccccc1 [Compound 47] | > 100 | > 100 | > 100 |  | 
CN1CCN(C[C@@H](O)COc2ccccc2)CC1 [Compound 48] | > 100 | > 100 | > 100 |  | 
CNC[C@@H](O)COc1cccc(Br)c1 [Compound 49] | > 100 | > 100 | > 100 |  | 
CC(C)CNC[C@@H](O)COc1cccc(Br)c1 [Compound 50] | > 100 | > 100 | > 100 |  | 
CN(C)C[C@@H](O)COc1cccc(Br)c1 [Compound 51] | 17.3 | > 100 | > 100 |  | 
CCN(C)C[C@@H](O)COc1cccc(Br)c1 [Compound 52] | 51.8 | > 100 | > 100 |  | 
CN1CCN(C[C@@H](O)COc2cccc(Br)c2)CC1 [Compound 53] | > 100 | > 100 | > 100 |  | 
CNC[C@@H](O)COc1cccc(F)c1 [Compound 54] | 55 | > 100 | > 100 |  | 
CC(C)CNC[C@@H](O)COc1cccc(F)c1 [Compound 55] | > 100 | > 100 | > 100 |  | 
CN(C)C[C@@H](O)COc1cccc(F)c1 [Compound 56] | 19.5 | > 100 | > 100 |  | 
CCN(C)C[C@@H](O)COc1cccc(F)c1 [Compound 57] | 6.17 | > 100 | > 100 |  | 
CCN(CC)C[C@@H](O)COc1cccc(F)c1 [Compound 58] | > 100 | > 100 | > 100 |  | 
CN1CCN(C[C@@H](O)COc2cccc(F)c2)CC1 [Compound 59] | > 100 | > 100 | > 100 |  | 
CNC[C@@H](O)COc1cccc(C(C)(C)C)c1 [Compound 60] | 45.5 | > 100 | > 100 |  | 
CC(C)CNC[C@@H](O)COc1cccc(C(C)(C)C)c1 [Compound 61] | 73.7 | > 100 | > 100 |  | 
CN(C)C[C@@H](O)COc1cccc(C(C)(C)C)c1 [Compound 62] | 0.934 | 84.7 | > 100 |  | 
CCN(C)C[C@@H](O)COc1cccc(C(C)(C)C)c1 [Compound 63] | 4.66 | > 100 | > 100 |  | 
CCN(CC)C[C@@H](O)COc1cccc(C(C)(C)C)c1 [Compound 64] | 57.4 | > 100 | > 100 |  | 
CN1CCN(C[C@@H](O)COc2cccc(C(C)(C)C)c2)CC1 [Compound 65] | 22 | 45.7 | > 100 |  | 
OC(COc1cccc(OCC(O)CN2CCCCC2)c1)CN1CCCCC1 (stereo not drawn) [VE607] | 0.74 | 2.66 | > 100 |  | 
